The results in this text go back to patent US10711000B2 (Fronthera U.S. Pharmaceuticals LLC, priority 2018, dated 2020).

Usually IC50 stands for the concentration that gives 50% inhibition. What is called AUC is the area under the concentration-time curve, a measure of exposure. A high value points to more exposure. One may read the Cmax as the highest concentration seen after dosing.

The structures appear in SMILES notation. Read-outs that look alike come from different tables or passages of the source.

The target of series [1] is T1, Autotaxin (Homo sapiens, UniProt Q13822).
T1 construct: from tissue; host or cells: pooled human plasma
Nature of the series: LPA formation in pooled human plasma (ex vivo autotaxin inhibition). The series is classed as biochemical. The conditions noted are these: 2 hours incubation. The essentials: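 Ex vivo: LPA 18:2 and 20:4 levels in compound-treated versus untreated pooled human plasma after 2 h incubation, measured by butanol extraction and negative-mode MRM LC/MS/MS against calibration standards. IC50 from non-linear fit of inhibition versus concentration.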

Series [2] in a line: Pharmacokinetics after a single oral dose in SD rats. Type of series: in vivo. The conditions noted are these: Sprague-Dawley, rat, plasma, single oral dose in 0.5% methylcellulose; for half-life: read-out: T½ (converted). An excerpt:
(§1) The pharmacokinetics and pharmacodynamics of test compounds after a single oral dose were investigated in SD rats, Beagle dog and Cynomolgus monkey. SD Rats (200-250 g) were purchased from Beijing Vital River Laboratory Animal Technology Co., Ltd. Male Beagle Dog, 6-9 kg, were purchased from Beijing Mashall. Male Cynomolgus monkeys, 3-5 kg, were purchased from Suzhou Xishan Zhongke Drugs Research and Development Co., Ltd. Following arrival, the animals were acclimated for 7 days in individual cages maintained at ambient temperature, 34 to 68% relative humidity, and 12-h light/dark cycles. Just prior to dose administration the rats were fasted overnight with free access to water. Animals were given 10 mL/kg of formulated compound in 0.5% methylcellulose (MC) by oral gavage, and the animals were fed four hours after dosing. The animals were manually restrained at the designated time points (pre-dose, 0.5, 1, 3, 6, 9, 12, and 24 h post-dose) to collect blood. Approximately 120 μL of blood was collected via orbital sinus into K2EDTA tubes. The blood samples were centrifuged at 5000 rpm for 10 min at 4° C. to obtain plasma samples.
To determine the compound concentration in the plasma samples, a 10× calibration standard of compound were prepared by serial dilution in DMSO: 20000, 10000, 5000, 2000, 1000, 500, 200, 100, 50, 20, and 10 ng/mL. 3 μL of calibration standard solution was added into 27.0 μL of blank plasma in 1.5-mL microcentrifuge tubes to generate 1× calibration standards. The 30.0 μL of standards or study plasma was mixed with 200 μL of acetonitrile (containing 5 ng/mL verapamil for internal control) in a 1.5-mL microcentrifuge tube. After vertexing for 1 minute and centrifuging at 10000 rpm for 10 min, 180 μL of supernatant was transferred into a 96-well plate and the compound concentration in the plasma was quantitated using LC/MS/MS together with standards. Briefly, 1 μL of the solutions were injected for LC-MS/MS analysis using an Agilent Zorbax C18 column (50×2.1 mm, 3.5 μm) with mobile phase A [5 mM NH4Ac (0.1% FA)] and phase B [Methanol (0.1% FA)]. Mass spectrometer parameters optimization for compound was performed by infusing standard diluted at 1 μg/mL in water/methanol (1/1, v/v) directly in the ionization source at a flow of 10 μL/min. Quantitative data were acquired in multiple reaction monitoring (MRM) positive APCI mode.

Series [3] deals with T2, Autotaxin (Rattus norvegicus, UniProt Q64610).
T2 construct: from tissue; host or cells: SD rats in vivo; plasma sampled after a single oral dose
In words: Pharmacodynamics: LPA 18:2 inhibition in plasma of SD rats after oral dose. The following applies: single oral dose, LPA18:2 inhibition vs plasma concentration of compound, read-out: In vivo rat IC50 (LPA 18:2) (converted).
Description: as §1
Autotaxin is a secreted phosphodiesterase that converts lysophosphatidylcholine (LPC) into lysophosphatidic acid (LPA), and LPA 18:2 formation was used to evaluate the efficacy of autotaxin inhibitors. Therefore, the LPA 18:2 formation in response to drug administration was analyzed in each time point to assess the pharmacodynamics of test compounds. To determine the LPA18:2 concentration in study plasma, a 10× calibration standard of LPA 18:2 were prepared by serial dilution in butyl alcohol: 20000, 10000, 5000, 2000, 1000, 500, 200, 100, 50, 20, and 10 ng/mL. 3 μL of calibration standard solution was added into 27.0 μL of blank plasma in 1.5-mL microcentrifuge tubes to generate 1× calibration standards. The 30.0 μL of standards or study plasma was added into 1.5-mL microcentrifuge tubes. 200 μL of butyl alcohol (containing 25.0 ng/mL LPA17:0 for internal control) was added into each 1.5-mL microcentrifuge tube containing study plasma or calibration standards. After vortexing for 1 minute and centrifuging at 10000 rpm for 10 min, 180 μL of supernatant was transferred into a 96-well plate and the LPA18:2 concentration in the plasma was quantitated using LC/MS/MS together with standards. Briefly, 8 μL of the solutions were injected for LC-MS/MS analysis using an ACQUITY UPLC BEH C18 column (2.1×50 mm, 1.7 μm) with mobile phase A [20 mM NH4OAC in water (0.1% FA)] and phase B [5 mM NH4OAC in water/0.2% FA in ACN=5:95]. Mass spectrometer parameters optimization for LPA18:2 were performed by infusing standard diluted at 1 μg/mL in butyl Alcohol directly in the ionization source, at a flow of 10 μL/min. Deprotonated molecular ion at m/z 433.2 ([M−H]−) for LPA18:2, and abundant product ion at m/z 152.8 for LPA18:2 were obtained. Quantitative data were acquired in multiple reaction monitoring (MRM) negative electrospray ionization mode
The percentage of LPA18:2 inhibition was plotted against the corresponding concentration of compound and the IC50 was calculated through non-linear regression fitting.

The mark [4] stands for this setting: LPA 18:2 by LC/MS/MS, read-out: LPA formation (18:2) (IC50).
[5] abbreviates: LPA 20:4 by LC/MS/MS, read-out: LPA formation (20:4) (IC50).

`CCc1nn2cc(F)c(N3CC4(CN(C(=O)C5CCN(C)CC5)C4)C3)cc2c1N(C)c1nc(-c2ccc(F)cc2)c(C#N)s1` [Example 106, 2-((2-ethyl-6-fluoro-5-(6-(1-methylpiperidine-4-carbonyl)-2,6-diazaspiro[3.3]heptan-2-yl)pyrazolo[1,5-a]pyridin-3-yl)(methyl)amino)-4-(4-fluorophenyl)thiazole-5-carbonitrile]: the IC50 at Autotaxin [1] (setting [4]) was not above 100 nM. Besides, the half-inhibitory concentration (IC50) on Autotaxin [1] (setting [5]) was not above 100 nM. For the same molecule, in series [2], the area under the curve (AUC) was 350 ± 156 ng·h/mL, the peak concentration (Cmax) was found to be 29.2 ± 15 ng/mL and the half-life was 7.21 ± 0.98 h. In addition, the 50% inhibitory concentration (IC50) on Autotaxin [3] is 19.2 nM.
As for `CCc1nn2cc(F)c(N3CCN(CC(=O)N4CC[C@@H](O)C4)CC3)cc2c1N(C)c1nc(-c2ccc(F)cc2)c(C#N)s1` [Example 109, (R)-2-((2-ethyl-6-fluoro-5-(4-(2-(3-hydroxypyrrolidin-1-yl)-2-oxoethyl)piperazin-1-yl)pyrazolo[1,5-a]pyridin-3-yl)(methyl)amino)-4-(4-fluorophenyl)thiazole-5-carbonitrile], the half-inhibitory concentration (IC50) on Autotaxin [1] (setting [4]) was not above 100 nM. Besides, the 50% inhibitory concentration (IC50) on Autotaxin [1] (setting [5]) is not above 100 nM. Further, in series [2], the exposure (AUC) worked out at 269 ± 85 ng·h/mL, the Cmax came out at 67.1 ± 24 ng/mL and the half-life is 3.46 ± 0.21 h. Also, on Autotaxin [3], the 50% inhibitory concentration (IC50) is 10 nM.
In the case of `CCc1nn2cc(F)c(N3CC4(CN(C(=O)C5(O)CCOCC5)C4)C3)cc2c1N(C)c1nc(-c2ccc(F)cc2)c(C#N)s1` [Example 112, 2-[[2-ethyl-6-fluoro-5-[2-(4-hydroxytetrahydropyran-4-carbonyl)-2,6-diazaspiro[3.3]heptan-6-yl]pyrazolo[1,5-a]pyridin-3-yl]-methyl-amino]-4-(4-fluorophenyl)thiazole-5-carbonitrile], the 50% inhibitory concentration (IC50) is not above 100 nM at Autotaxin [1] (setting [4]), not above 100 nM on Autotaxin [1] (setting [5]) and 97.5 nM on Autotaxin [3]. For the same molecule, the AUC in series [2] came out at 4750 ± 1430 ng·h/mL. The molecule also displayed a Cmax in series [2] of 460 ± 178 ng/mL. For the same molecule, the half-life in series [2] was 3.77 ± 0.34 h.
